# Test results reported in patent US20240190904A1, “Heteroaryl compounds as inhibitors of RIP2 kinase, composition and application thereof” (Accro Bioscience (HK) Limited, priority 2021, published 2024).
# Counter-ions that a name gives are not always drawn.
# Tests used:
# RIP2 kinase = RIP2 kinase (Homo sapiens (Human), UniProt O43353); experiment: Binding affinity assay (Kd)
# Experimental: For most assays, kinase-tagged T7 phage strains were prepared in an E. coli host derived from the BL21 strain. E. coli were grown to log-phase and infected with T7 phage and incubated with shaking at 32° C. until lysis. The lysates were centrifuged and filtered to remove cell debris. The remaining kinases were produced in HEK-293 cells and subsequently tagged with DNA for qPCR detection. Streptavidin coated magnetic beads were treated with biotinylated small molecule ligands for 30 minutes at room temperature to generate affinity resins for kinase assays. The liganded beads were blocked with excess biotin and washed with blocking buffer (SeaBlock (Pierce), 1% BSA, 0.05% Tween 20, 1 mM DTT) to remove unbound ligand and to reduce non-specific binding. Binding reactions were assembled by combining kinases, liganded affinity beads, and test compounds in 1× binding buffer (20% SeaBlock, 0.17×PBS, 0.05% Tween 20, 6 mM DTT). Test compounds were prepared as 111× stocks in 100% DMSO. Kds were determined using an 11-point 3-fold compound dilution series with three DMSO control points. All compounds for Kd measurements are distributed by acoustic transfer (non-contact dispensing) in 100% DMSO. The compounds were then diluted directly into the assays such that the final concentration of DMSO was 0.9%. All reactions performed in polypropylene 384-well plate. Each was a final volume of 0.02 ml. The assay plates were incubated at room temperature with shaking for 1 hour and the affinity beads were washed with wash buffer (1×PBS, 0.05% Tween 20). The beads were then re-suspended in elution buffer (1×PBS, 0.05% Tween 20, 0.5 μM nonbiotinylated affinity ligand) and incubated at room temperature with shaking for 30 minutes. The kinase concentration in the eluates was measured by qPCR.
# An 11-point 3-fold serial dilution of each test compound was prepared in 100% DMSO at 100× final test concentration and subsequently diluted to 1× in the assay (final DMSO concentration=1%). Most Kds were determined using a compound top concentration=30,000 nM. If the initial Kd determined was <0.5 nM (the lowest concentration tested), the measurement was repeated with a serial dilution starting at a lower top concentration.
# Binding constants (Kds) were calculated with a standard dose-response curve using the Hill equation: […]
# The Hill Slope was set to −1.
# Curves were fitted using a non-linear least square fit with the Levenberg-Marquardt algorithm.
# [1] = system: IL-8 in THP-1 induced by MDP; experiment: THP-1 cell assay, IL-8 ELISA after MDP; type: cell-based; details: for inhibition at 0.01 µM: Homo sapiens, test compounds 10 nM, THP-1, MDP induced
# Experimental: Acute monoblastic and monocytic leukemia (THP-1) was obtained from ATCC (item NO. TIB-202™). The temperature of the sterile incubator is 37˜38° C., the osmotic pressure is 260˜320 mmol/L, the pH range is 7.2˜7.4, and the ratio of carbon dioxide gas is 5%.
# Cells were seeded in 96-well plates. After an hour, cells were incubated with test compounds for 2 hours. MDP (10 μL) was added and incubated for 6 hours. The samples were centrifuged (3000 rmp/min) for 5 minutes. The concentration of IL-8 in the supernatants was detected by IL-8 ELISA.
# [2] = Pharmacokinetic evaluation in mice; type: in vivo
# Experimental: The mice pharmacokinetic characteristics of compounds were tested by standard protocols. The candidate compounds were made into clear solution for single intravenous injection (i.v.) and suspension for oral administration (p.o.). Intravenous vehicle is 5% DMSO+95% Saline while oral vehicle is 0.5% CMCNa. The experiment used 48 male mice and 24 mice for intravenous at a dose of 2 mg/kg. Plasma samples were collected at 0 h (before dosing) and 0.083 h, 0.25 h, 0.5 h, 1 h, 2 h, 4 h, 8 h, 24 h after dosing. Another 24 mice were orally administrated with a dose of 10 mg/kg. Plasma samples were collected at 0 h (before dosing) and 0.25 h, 0.5 h, 1 h, 2 h, 4 h, 6 h, 8 h, 24 h after dosing.
# Blood samples were placed in tubes containing K2-EDTA and stored on ice until centrifuged. The blood samples were centrifuged at 6800 g for 6 minutes at 2-8° C. within 1 h after collected and stored frozen at approximately −80° C.
# The analytical results were confirmed using quality control samples for intra-assay variation. The accuracy of >66.7% of the quality control samples and 50% of all QC samples at each concentration level were between 80-120% of the known value(s).
# Standard set of parameters including Area Under the Curve (AUC(0-t) and AUC(0-∞)), elimination half-live (T1/2), maximum plasma concentration (Cmax), time to reach maximum plasma concentration (Tmax) were calculated using noncompartmental analysis modules in FDA certified pharmacokinetic program Phoenix WinNonlin 7.0 (Pharsight, USA) by the Study Director.
# [3] = Protein binding test (dialysis), dog; type: in vitro ADME
# Experimental: (§1) • 1. Spiking Solutions of Test and Reference Compounds • 1.1 Solution A (0.5 mM): Add 10 μL of 10 mM stock solution into 190 μL of DMSO. • 1.2 Solution B (0.02 mM): Add 8 μL of Solution A into 192 μL of 0.05 M sodium phosphate buffer. The final DMSO concentration in Solution B is 4%. • 2. Preparation of Test and Reference Compounds • 2.1 Preload a 96-well plate with 380 μL aliquots of plasma in the wells designated for plasma and buffer, respectively. • 2.2 Spike 20 μL of Solution B (0.02 mM of test and reference compounds) into the pre-loaded plasma in the 96-well plate. The final test concentration is 1 μM containing 0.2% DMSO. • 3. Dialysis Sample Loading • 3.1 Preparing plasma against buffer system (duplicate): Apply aliquots of 100 μL of blank dialysis buffer to the receiver side of dialysis chambers. Then apply aliquots of 100 μL of the plasma spiked with test and reference compounds to the donor side of the dialysis chambers. • 3.2 Preparing T0 plasma samples for initial concentrations (duplicate): • 3.2.1 Aliquot 25 μL of the plasma spiked with test and reference compounds into a 96-well sample preparation plate as T0 plasma samples • 3.2.2 Mix the aliquots with same volume of blank buffer (50:50, v/v). • 3.2.3 Quench the samples with 200 μL of acetonitrile containing internal standard (IS). • 3.3 Cover the dialysis block with a plastic lid and place the entire apparatus in a shaker (60 rpm) for 5 hours at 37° C. • 3.4 Preparing dialyzed samples after 5-hour incubation: • 3.4.1 Aliquot 25 μL from both the donor sides and receiver sides of the dialysis apparatus into new sample preparation plates and mix the aliquots with same volume of opposite matrixes (blank buffer to plasma and vice versa). • 3.4.2 Quench the samples with 200 μL acetonitrile containing internal standard (IS). Vortex all the samples (from 0 h and 5 h) at 600 rpm for 10 min followed by centrifugation at 5594 g for 15 minutes (ThermoMultifuge×3R). • 3.4.3 Transfer 50 μL of the supernatants to a new 96-well plate and mix the samples with 50 μL of Milli-Q water. Cover the sample plate and store it in a freezer (−20° C.) until LC/MS/MS analysis.
# [4] = Protein binding test (dialysis), rat; type: in vitro ADME
# Experimental: as §1
# [5] = Protein binding test (dialysis), human; type: in vitro ADME
# Experimental: as §1
# [6] = male, mouse, plasma, iv, i.v. 2 mg/kg
# [7] = male, mouse, plasma, po, p.o. 10 mg/kg
# RIP2 kinase, sequence (O43353 whole entry): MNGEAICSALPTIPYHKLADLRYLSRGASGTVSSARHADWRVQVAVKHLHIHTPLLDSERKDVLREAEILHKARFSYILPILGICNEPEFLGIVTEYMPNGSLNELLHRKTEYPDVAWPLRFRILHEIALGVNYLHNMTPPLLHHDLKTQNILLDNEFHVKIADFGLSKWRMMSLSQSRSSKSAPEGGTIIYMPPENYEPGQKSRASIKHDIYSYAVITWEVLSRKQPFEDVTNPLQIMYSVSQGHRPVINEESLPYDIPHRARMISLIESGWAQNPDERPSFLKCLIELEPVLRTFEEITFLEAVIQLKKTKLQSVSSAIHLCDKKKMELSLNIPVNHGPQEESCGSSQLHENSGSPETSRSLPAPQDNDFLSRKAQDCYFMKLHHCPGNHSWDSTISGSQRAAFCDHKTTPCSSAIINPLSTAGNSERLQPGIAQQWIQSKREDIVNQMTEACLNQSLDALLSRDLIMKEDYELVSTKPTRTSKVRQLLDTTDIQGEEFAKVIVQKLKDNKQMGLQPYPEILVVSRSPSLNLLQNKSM
SMILES,Kd (RIP2 kinase),inhibition at 0.01 µM [1],further results
"CP(C)(=O)c1ccc2nccc(Nc3ccc4scnc4c3)c2c1 [A1, (4-(benzo[d]thiazol-5-ylamino)quinolin-6-yl)dimethylphosphine oxide hydrochloride]",28 nM,,
Cc1ccc(O)cc1Nc1ccnc2ccc(P(C)(C)=O)cc12 [A2],89 nM,,
CP(C)(=O)c1ccc2nccc(Nc3n[nH]c4ccc(F)cc34)c2c1 [A3],430 nM,,
Cc1[nH]nc(Nc2ccnc3ccc(P(C)(C)=O)cc23)c1C [A4],89 nM,,
CP(C)(=O)c1ccc2nccc(Nc3cc(O)ccc3F)c2c1 [A5],120 nM,,
CP(C)(=O)c1cc2c(Nc3ccc4scnc4c3)ccnc2cc1OC1CCOC1 (centres unmarked) [A10],1.8 nM,51%,
"Cn1cc(-c2cc3nccc(Nc4ccc5scnc5c4)c3cc2P(C)(C)=O)cn1 [A11, (4-(benzo[d]thiazol-5-ylamino)-7-(1-methyl-1H-pyrazol-4-yl)quinolin-6-yl)dimethylphosphine oxide]",3 nM,37%,
CP(C)(=O)c1cc2c(Nc3ccc4scnc4c3)ccnc2cc1-c1cc[nH]n1 [A12],2.3 nM,,
CP(C)(=O)c1cc2c(Nc3ccc4scnc4c3)ccnc2cc1-c1cn[nH]c1 [A17],,11%,
"CP(C)(=O)c1cc2c(Nc3ccc4scnc4c3)ccnc2cc1OC[C@@H](O)CO [A18, (S)-(4-(benzo[d]thiazol-5-ylamino)-7-(2,3-dihydroxypropoxy)quinolin-6-yl)dimethylphosphine oxide]",,12%,
CP(C)(=O)c1cc2c(Nc3ccc4scnc4c3)ccnc2cc1OC[C@H](O)CO [A19],,13%,
CP(C)(=O)c1cc2c(Nc3ccc4scnc4c3)ccnc2cc1F [A20],8.7 nM,,
CP(C)(=O)c1cc2c(Nc3ccc4scnc4c3)ccnc2cc1OC1CCC1 [A21],1.5 nM,,
[2H]C([2H])([2H])Oc1cc2nccc(Nc3ccc4scnc4c3)c2cc1P(C)(C)=O [A22],,60%,
"COc1cc2ncc(F)c(Nc3ccc4scnc4c3)c2cc1P(C)(C)=O [A23, (4-(benzo[d]thiazol-5-ylamino)-3-fluoro-7-methoxyquinolin-6-yl)dimethylphosphine oxide]",,5%,
CP(C)(=O)c1cc2c(Nc3ccc4scnc4c3)ccnc2cc1OC(F)F [A25],6.4 nM,,"plasma exposure and bioavailability in mice (in words) [2]: excellent plasma exposure and bioavailability; AUC [2, 6]: 6510 ng·h/mL; Vd [2, 6]: 0.59 L/kg; clearance [2, 6]: 4.3 mL/min/kg; half-life [2, 6]: 1.6 h; AUC [2, 7]: 68300 ng·h/mL; Cmax [2, 7]: 19200 ng/mL; Tmax [2, 7]: 0.7 h; F ([2]; p.o. 10 mg/kg): 210%; protein binding in dog (in words) ([3]; dog): moderate; fraction unbound at 5 h, 1 μM ([3]; dog plasma, 1 μM): 0.05; protein binding in rat (in words) ([4]; rat): high protein binding; fraction unbound at 5 h, 1 μM ([4]; rat plasma, 1 μM): 0.006; protein binding in human (in words) ([5]; human): moderate; fraction unbound at 5 h, 1 μM ([5]; human plasma, 1 μM): 0.032"
"CP(C)(=O)c1cc2c(Nc3ccc4scnc4c3)ccnc2cc1C1COC1 [A26, (4-(benzo[d]thiazol-5-ylamino)-7-(oxetan-3-yl)quinolin-6-yl)dimethylphosphine oxide]",12 nM,,
Cc1noc(C)c1-c1cc2nccc(Nc3ccc4scnc4c3)c2cc1P(C)(C)=O [A27],,37%,
COc1cc2nccc(Nc3ccc4scnc4c3F)c2cc1P(C)(C)=O [A28],,63%,
CP(C)(=O)c1cc2c(Nc3ccc4scnc4c3F)ccnc2cc1OC1COC1 [A29],,85%,
"CP(C)(=O)c1cnc2nccc(Nc3ccc4scnc4c3)c2c1 [B1, (5-(benzo[d]thiazol-5-ylamino)-1,8-naphthyridin-3-yl)dimethylphosphine oxide]",3200 nM,,affinity with RIP2 kinase (in words) (RIP2 kinase): low affinity
"COc1cc2nncc(Nc3ccc4scnc4c3)c2cc1P(C)(C)=O [B2, (4-(benzo[d]thiazol-5-ylamino)-7-methoxycinnolin-6-yl)dimethylphosphine oxide]",,0%,inhibition of IL-8 in THP-1 induced by MDP (in words) ([1]; 10 nM): no effect
